Data reported in patent publication US20260285850A1, “SUBSTITUTED OXAZOLIDINONES AND IMIDAZOLINONES AS HERBICIDES” (FMC CORPORATION, priority 2023, published 2026).

Assays:
Format in all cases: in vivo
[1] = tested on: barnyardgrass (Echinochloa crus-galli); test: Test A preemergence soil spray, visual injury rating 0-100; settings: 10 days
Outline: (§1)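 Rating: visual, day 10, untreated plants as reference, 0 no effect to 100 full control. Plants were in loam-sand and were treated either preemergence via directed soil spray or postemergence at the one- to two-leaf stage.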

[2] = tested on: blackgrass (Alopecurus myosuroides); test: as above; settings: 10 days
Outline: as §1

corn (Zea mays) [3] = test: as above; settings: 10 days
Outline: as §1

[4] = tested on: green foxtail (Setaria viridis); test: as above; settings: 10 days
Outline: as §1

kochia (Bassia scoparia) [5] = test: as above; settings: 10 days
Outline: as §1

[6] = tested on: oat, wild (wild oat, Avena fatua); test: as above; settings: 10 days
Outline: as §1

[7] = tested on: palmer (palmer amaranth, palmer pigweed, Amaranthus palmeri); test: as above; settings: 10 days
Outline: as §1

[8] = tested on: ragweed (common ragweed, Ambrosia artemisiifolia); test: as above; settings: 10 days
Outline: as §1

[9] = tested on: ryegrass, Italian (italian ryegrass, Lolium multiflorum); test: as above; settings: 10 days
Outline: as §1

soybean (Glycine max) [10] = test: as above; settings: 10 days
Outline: as §1

[11] = tested on: wheat (Triticum aestivum); test: as above; settings: 10 days
Outline: as §1

[12] = tested on: barnyardgrass (Echinochloa crus-galli); test: Test A postemergence application, visual injury rating 0-100
Outline: as §1

[13] = tested on: blackgrass (Alopecurus myosuroides); test: as above
Outline: as §1

corn (Zea mays) [14] = test: as above
Outline: as §1

[15] = tested on: galium (catchweed bedstraw, Galium aparine); test: as above
Outline: as §1

[16] = tested on: green foxtail (Setaria viridis); test: as above
Outline: as §1

[17] = tested on: horseweed (Erigeron canadensis); test: as above
Outline: as §1

kochia (Bassia scoparia) [18] = test: as above
Outline: as §1

[19] = tested on: oat, wild (wild oat, Avena fatua); test: as above
Outline: as §1

[20] = tested on: palmer (palmer amaranth, palmer pigweed, Amaranthus palmeri); test: as above
Outline: as §1

[21] = tested on: ragweed (common ragweed, Ambrosia artemisiifolia); test: as above
Outline: as §1

[22] = tested on: ryegrass, Italian (italian ryegrass, Lolium multiflorum); test: as above
Outline: as §1

soybean (Glycine max) [23] = test: as above
Outline: as §1

[24] = tested on: wheat (Triticum aestivum); test: as above
Outline: as §1

[25] = tested on: barnyardgrass (Echinochloa crusgalli); test: Test B flooded paddy test, visual plant response rating 0-100; settings: 250 g ai/ha, Flood, applied to paddy water, evaluated after 13 days
Outline: (§2)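 2-leaf plants; flood 3 cm over soil; compound dosed into paddy water; depth kept constant; greenhouse 13 d; visual scoring vs controls. Dash = no result.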

[26] = tested on: ducksalad (Heteranthera limosa); test: as above; settings: 250 g ai/ha, Flood, applied to paddy water, evaluated after 13 days
Outline: as §2

rice (Oryza sativa) = test: as above; settings: 250 g ai/ha, Flood, applied to paddy water, evaluated after 13 days
Outline: as §2

[27] = tested on: sedge, umbrella (small-flower umbrella sedge, Cyperus difformis); test: as above; settings: 250 g ai/ha, Flood, applied to paddy water, evaluated after 13 days
Outline: as §2

[28] = 62 g ai/ha, 0 = no effect, 100 = complete control
[29] = 62 g ai/ha, postemergence, 10 days, 0 = no effect, 100 = complete control
[30] = Postemergence, 16 g ai/ha, greenhouse 10 days, 0 no effect, 100 complete control

C=CC1(C(=O)NC2C=CC(C(=O)O)C2)CN(c2cc(F)cc(F)c2)C(=O)O1 (mixture of isomers) [Compound 166]
Barnyardgrass plant response rating ([1]; 16 g ai/ha, 0 to 100 scale): 40 | Barnyardgrass plant response rating (0-100) [1, 28]: 100 | Blackgrass plant response rating ([2]; 16 g ai/ha, 0 to 100 scale): 10 | Blackgrass plant response rating (0-100) [2, 28]: 70 | Corn plant response rating (corn (Zea mays) [3]; 16 g ai/ha, 0 to 100 scale): 20 | Corn plant response rating (0-100) (corn (Zea mays) [3]; [28]): 60 | Foxtail, Green plant response rating ([4]; 16 g ai/ha, 0 to 100 scale): 0 | Foxtail, Green plant response rating (0-100) [4, 28]: 50 | Kochia plant response rating (kochia (Bassia scoparia) [5]; 16 g ai/ha, 0 to 100 scale): 0 | Kochia plant response rating (0-100) (kochia (Bassia scoparia) [5]; [28]): 60 | Oat, Wild plant response rating ([6]; 16 g ai/ha, 0 to 100 scale): 0 | Oat, Wild plant response rating (0-100) [6, 28]: 60 | Pigweed, Palmer plant response rating ([7]; 16 g ai/ha, 0 to 100 scale): 20 | Pigweed, Palmer plant response rating (0-100) [7, 28]: 100 | Ragweed plant response rating ([8]; 16 g ai/ha, 0 to 100 scale): 0 | Ragweed plant response rating (0-100) [8, 28]: 30 | Ryegrass, Italian plant response rating ([9]; 16 g ai/ha, 0 to 100 scale): 0 | Ryegrass, Italian plant response rating (0-100) [9, 28]: 90 | Soybean plant response rating (soybean (Glycine max) [10]; 16 g ai/ha, 0 to 100 scale): 20 | Soybean plant response rating (0-100) (soybean (Glycine max) [10]; [28]): 90 | Wheat plant response rating ([11]; 16 g ai/ha, 0 to 100 scale): 60 | Wheat plant response rating (0-100) [11, 28]: 90 | Barnyardgrass plant response rating (0-100) [12, 29]: 100 | Barnyardgrass plant response rating (0 to 100 scale) [12, 30]: 90 | Blackgrass plant response rating (0-100) [13, 29]: 90 | Blackgrass plant response rating (0 to 100 scale) [13, 30]: 70 | Corn plant response rating (0-100) (corn (Zea mays) [14]; [29]): 100 | Corn plant response rating (0 to 100 scale) (corn (Zea mays) [14]; [30]): 90 | Galium plant response rating (0-100) [15, 29]: 90 | Galium plant response rating (0 to 100 scale) [15, 30]: 70 | Foxtail, Green plant response rating (0-100) [16, 29]: 90 | Foxtail, Green plant response rating (0 to 100 scale) [16, 30]: 30 | Horseweed plant response rating (0-100) [17, 29]: 80 | Horseweed plant response rating (0 to 100 scale) [17, 30]: 50 | Kochia plant response rating (0-100) (kochia (Bassia scoparia) [18]; [29]): 80 | Kochia plant response rating (0 to 100 scale) (kochia (Bassia scoparia) [18]; [30]): 80 | Oat, Wild plant response rating (0-100) [19, 29]: 90 | Oat, Wild plant response rating (0 to 100 scale) [19, 30]: 90 | Pigweed, Palmer plant response rating (0-100) [20, 29]: 90 | Pigweed, Palmer plant response rating (0 to 100 scale) [20, 30]: 90 | Ragweed plant response rating (0-100) [21, 29]: 70 | Ragweed plant response rating (0 to 100 scale) [21, 30]: 40 | Ryegrass, Italian plant response rating (0-100) [22, 29]: 90 | Ryegrass, Italian plant response rating (0 to 100 scale) [22, 30]: 60 | Soybean plant response rating (0-100) (soybean (Glycine max) [23]; [29]): 100 | Soybean plant response rating (0 to 100 scale) (soybean (Glycine max) [23]; [30]): 80 | Wheat plant response rating (0-100) [24, 29]: 90 | Wheat plant response rating (0 to 100 scale) [24, 30]: 90 | Plant response rating, Barnyardgrass (0 to 100 scale, 0 is no effect and 100 is complete control) [25]: 95 | Plant response rating, Ducksalad (0 to 100 scale, 0 is no effect and 100 is complete control) [26]: 85 | Plant response rating, Rice (0 to 100 scale, 0 is no effect and 100 is complete control) (rice (Oryza sativa)): 80 | Plant response rating, Sedge, Umbrella (0 to 100 scale, 0 is no effect and 100 is complete control) [27]: 95
